Source: article PMC4376724, “Differential Phenotypic and Functional Profiles of TcCA-2 -Specific Cytotoxic CD8^+ T Cells in the Asymptomatic versus Cardiac Phase in Chagasic Patients” (PLoS ONE, 2015)

Test system: PBMC from HLA-A*02:01 Chagas disease patients and healthy donors
Assay: Cytokine secretion test (Bio-Plex multiplex immunoassay) in PBMC supernatants
Format: cell-based, human
Conditions: 1 μM peptide, 30 h; for IFNγ / IL6 / TNFα: non-peptide control subtracted
Description: For the screening of the recognition of TcCA-2 epitopes by Chagas disease patients, 10 HLA-A*02:01 adult patients in the asymptomatic phase of the disease (IND) were enrolled. For cytotoxicity, functional activity determinations and phenotypic characterization another group of 19 HLA-A*02:01 adults Chagas disease patients and 9 healthy donors were analyzed. These patients were at the chronic stage of the disease and were considered to be at the asymptomatic phase (IND, n = 8) if there was no evidence of having cardiac or gastrointestinal disorders. Chronic Chagas cardiomyopathy patients (CCC, n = 11) were stratified into G1 to G3 stages following Kuschnir classification according to clinical criteria and radiological, electrocardiographic and echocardiography analyses. The number of patients was the one recommended by the Hospital Ethical Committee. […] The patients were enrolled in both studies (functional and phenotypic characterization, IND n = 6 and CCC n = 7) when the available number of purified PBMC (limited by the cellular number isolated from each subject) was enough for both analyses. Another four CCC patients had to be enrolled to perform the phenotypic analysis in order to reach statistical significance.
Cytokine secretion (IL-4, IL-10, IL-6, IFN-γ, TNF-α) was determined in the supernatants of PBMC from Chagas disease patients and healthy donors, after in vitro stimulation with 1 μM of each peptide for 30 h at 37°C in RPMI supplemented with 10% iFBS as explained before. The secretion profile was determined by using a bead-based multiplex immunoassay system (Bio-Plex, Bio-Rad), following the manufacturer's instructions. The response was considered positive if an increase in the secretion of cytokines was at least three folds higher than the secretion by un-stimulated cells (basal secretion level) and at least, 4 pg/mL for IL-4, 2 pg/mL for IL-10, 15 pg/mL for IL-6 and 5 pg/mL for IFN-γ and TNF-α. The positive control consisted of 50 ng/mL Phorbol 12 myristate 13-acetate (PMA) and 500 ng/mL ionomycin (Sigma). Cytokine levels were quantified in each sample by using the Bio-Plex Manager software 4.1 (Bio-Rad).
Functional analysis of the epitope-specific CD8^+ T cells was carried out by the determination of the secretion profile of IFN-γ, TNF-α, IL-4, IL10 and IL-6 cytokines. […] CD8^+ T cells from 2 out of 11 patients responded to stimulation with peptide TcCA-2_273-281 by secreting IL-6. […] There was no secretion of IL-4 and IL-10 in PBMC after stimulation with any one of the four TcCA-2 peptides (data not shown). IFN-γ, TNF-α and IL6 cytokines secretion levels were higher in patients at the asymptomatic phase of the disease than in Chagas patients with associated cardiomyopathy.

With AAAGDKLSL [TcCA-2_273-281] the “Patients whose cells responded by secreting IL-6” value (PBMC of Chagas patients, same positivity criteria) was 2 out of 11, the IFNγ (PBMC of patient CCC I 456) was 0 pg/mL and the IL6 (PBMC of patient CCC I 456) was 0 pg/mL. It also gave a TNFα (PBMC of patient CCC I 456) of 0 pg/mL, an IFNγ (PBMC of patient CCC I 770) of 0 pg/mL and an IL6 (PBMC of patient CCC I 770) of 22 pg/mL. For the same sequence, the TNFα (PBMC of patient CCC I 770) was 4 pg/mL, the IFNγ (PBMC of patient CCC I 861) was 2 pg/mL and the IL6 (PBMC of patient CCC I 861) was -4 pg/mL. It also gave a TNFα (PBMC of patient CCC I 861) of -2 pg/mL, an IFNγ (PBMC of patient CCC I 884) of 0 pg/mL and an IL6 (PBMC of patient CCC I 884) of 0 pg/mL. It also gave a TNFα (PBMC of patient CCC I 884) of 0 pg/mL, an IFNγ (PBMC of patient CCC III 509) of 0 pg/mL and an IL6 (PBMC of patient CCC III 509) of -4 pg/mL. The TNFα (PBMC of patient CCC III 509) was -5 pg/mL, the IFNγ (PBMC of patient IND 365) was 1 pg/mL and the IL6 (PBMC of patient IND 365) was 43 pg/mL. It also gave a TNFα (PBMC of patient IND 365) of -6 pg/mL, an IFNγ (PBMC of patient IND 388) of 2 pg/mL and an IL6 (PBMC of patient IND 388) of 36 pg/mL. The TNFα (PBMC of patient IND 388) was 7 pg/mL, the IFNγ (PBMC of patient IND 510) was 0 pg/mL and the IL6 (PBMC of patient IND 510) was 1 pg/mL. The TNFα (PBMC of patient IND 510) was -1 pg/mL, the IFNγ (PBMC of patient IND 535) was 0 pg/mL and the IL6 (PBMC of patient IND 535) was -5 pg/mL. It also gave a TNFα (PBMC of patient IND 535) of -1 pg/mL, an IFNγ (PBMC of patient IND 571) of 0 pg/mL and an IL6 (PBMC of patient IND 571) of 0 pg/mL. It also gave a TNFα (PBMC of patient IND 571) of 0 pg/mL, an IFNγ (PBMC of patient IND 917) of 7 pg/mL and an IL6 (PBMC of patient IND 917) of 18 pg/mL. It also gave a TNFα (PBMC of patient IND 917) of 11 pg/mL, an IFNγ (PBMC of subject HD 001) of 6 pg/mL and an IL6 (PBMC of subject HD 001) of 1 pg/mL. It also gave a TNFα (PBMC of subject HD 001) of -8 pg/mL, an IFNγ (PBMC of subject HD 004) of 0 pg/mL and an IL6 (PBMC of subject HD 004) of -9 pg/mL. It also gave a TNFα (PBMC of subject HD 004) of 0 pg/mL, an IFNγ (PBMC of subject HD 005) of -19 pg/mL and an IL6 (PBMC of subject HD 005) of -183 pg/mL. The TNFα (PBMC of subject HD 005) was -11 pg/mL, the IFNγ (PBMC of subject HD 006) was 6 pg/mL and the IL6 (PBMC of subject HD 006) was 1 pg/mL. The TNFα (PBMC of subject HD 006) was 2 pg/mL, the IFNγ (PBMC of subject HD 008) was -1 pg/mL and the IL6 (PBMC of subject HD 008) was 9 pg/mL. The TNFα (PBMC of subject HD 008) was 0 pg/mL, the IFNγ (PBMC of subject HD 011) was 0 pg/mL and the IL6 (PBMC of subject HD 011) was -11 pg/mL. The TNFα (PBMC of subject HD 011) was -8 pg/mL, the IFNγ (PBMC of subject HD 340) was 0 pg/mL and the IL6 (PBMC of subject HD 340) was 9 pg/mL. It also gave a TNFα (PBMC of subject HD 340) of 4 pg/mL, an IFNγ (PBMC of subject HD 664) of -3 pg/mL and an IL6 (PBMC of subject HD 664) of 0 pg/mL. The TNFα (PBMC of subject HD 664) was 0 pg/mL.
